Assay results reported in US8916555B2, “3,5-diaminopyrazole kinase inhibitors” (Axikin Pharmaceuticals, Inc., priority 2012, dated 2014).

What was measured:
[1] = target: T1, kinase domain protein of RC kinase (Homo sapiens, UniProt Q56UN5); assay: Enzymatic assay for kinase inhibitory activity (Crebtide substrate, LANCE readout), kinase domain protein; format: biochemical; conditions: test compound 1 μM, ATP 1 μM, Crebtide 50 nM
T1 sequence (Q56UN5 1061-1324 limits assumed): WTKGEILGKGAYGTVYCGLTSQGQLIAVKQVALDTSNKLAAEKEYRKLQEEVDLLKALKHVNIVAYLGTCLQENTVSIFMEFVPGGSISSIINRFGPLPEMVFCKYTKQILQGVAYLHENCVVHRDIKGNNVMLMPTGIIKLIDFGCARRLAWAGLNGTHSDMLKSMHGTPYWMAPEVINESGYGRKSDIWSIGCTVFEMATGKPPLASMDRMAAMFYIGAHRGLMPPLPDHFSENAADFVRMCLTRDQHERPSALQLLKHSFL
Protocol: Solutions of a test compound, Crebtide (a substrate), a kinase, and ATP were prepared using 1×MAPK Buffer (50 mM HEPES, 1 mM EGTA, […], 10 mM MgCl2, 2 mM DTT, and 0.01% Tween 20).
To each well, the test compound (1 μL) was first added (in duplicate) to reach a final concentration of 1 μM or 1×IC50 of the compound. The kinase (5 μL) was then added to each well to reach a final concentration of […] for the kinase domain or […] for the full-length domain. Each plate included a positive and negative controls in duplicate wells. Crebtide (2.5 μL) was then added to each well in duplicate to reach a final concentration of 50 nM. If the full-length kinase was used, the plates were incubated for 45 min at room temperature before proceeding further. ATP (2.5 μL) was added to each well to reach a final concentration of 1 μM for the kinase domain and 3 μM for the full-length.
After the addition of ATP, the plates were incubated for 45 min at room temperature. During the incubation, an EDTA solution (40 mM) and anti-Crebtide ([…]) were prepared. Additionally, a detection buffer stock solution was diluted ten fold before use.
After the incubation, the anti-Crebtide (5 μL) and EDTA (5 μL) were added to each well to reach their final concentrations of […] and 10 mM, respectively. The plates were allowed to develop at room temperature for 45 min. The plates were then read at 665 nm and 615 nm using Perkin Elmer Lance machine.
The biological results of inhibition of the kinase domain protein of RC kinase are summarized in Tables 2 and 3, wherein A represents at least 50% inhibition of the RC kinase activity at 1 μM; B represents no greater than 50% but at least 20% inhibition of the RC kinase activity at 1 μM; C represents no greater than 20% but at least 5% inhibition of the RC kinase activity at 1 μM; and D represents no greater than 5% inhibition of the RC kinase activity at 1 μM.

melting point [°C] | inhibition at 1 µM [1] [%] | SMILES | Activity (inhibition of the RC kinase activity at 1 μM) [1]
62 to 72 |  | N#Cc1c(Nc2cccc(Cl)c2)n[nH]c1NCc1ccc(Oc2ccc(C(F)(F)F)cn2)cc1 [Compound C2] | B (no greater than 50% but at least 20% inhibition of the RC kinase activity at 1 μM)
100 to 104 | 5 to 20 | Cn1nc(CSc2ccccc2)c(CNc2[nH]nc(Nc3cccc(Cl)c3)c2C#N)c1Cl [Compound C3] | 
171 to 174 | 5 to 20 | N#Cc1c(Nc2cccc(Cl)c2)n[nH]c1NCc1ccc(Cl)cc1Cl [Compound C19] | 
172 to 180 | 5 to 20 | N#Cc1c(Nc2cccc(Cl)c2)n[nH]c1NCc1ccc(Cl)cc1O [Compound C24] | 
97 to 105 | 5 to 20 | COc1ccc(CNc2[nH]nc(Nc3cccc(Cl)c3)c2C#N)cc1F [Compound C27] | 
205 to 208 | ≤ 5 | N#Cc1c(Nc2cccc(Cl)c2)n[nH]c1NCc1ccc(O)cc1 [Compound C31, 3-((3-chlorophenyl)amino)-5-((4-hydroxybenzyl)amino)-1H-pyrazole-4-carbonitrile] | 
184 to 194 |  | N#Cc1c(Nc2cccc(Cl)c2)n[nH]c1NCc1ccc(Oc2ccc(C(F)(F)F)cn2)cc1 [Compound C32, 3-((3-chlorophenyl)amino)-5-((4-((5-(trifluoromethyl)pyridin-2-yl)oxy)benzyl)amino)-1H-pyrazole-4-carbonitrile] | C (no greater than 20% but at least 5% inhibition of the RC kinase activity at 1 μM)
216 to 222 | 20 to 50 | N#Cc1c(Nc2cccnc2)n[nH]c1NCc1ccc(O)cc1 [Compound C33, 5-((4-hydroxybenzyl)amino)-3-(pyridin-3-ylamino)-1H-pyrazole-4-carbonitrile] | 
196 to 200 | ≥ 50 | NC(=O)c1c(Nc2cccc(Cl)c2)n[nH]c1NCc1ccc(O)cc1 [Compound D1, 3-((3-chlorophenyl)amino)-5-((4-hydroxybenzyl)amino)-1H-pyrazole-4-carboxamide] | 
214 to 216 | 20 to 50 | NC(=O)c1c(Nc2ccccc2)n[nH]c1NCc1ccc(O)cc1 [Compound D2] | 
193 to 199 |  | NC(=O)c1c(Nc2cccc(Cl)c2)n[nH]c1NCc1ccc(Oc2ncccn2)cc1 [Compound D32, 3-((3-chlorophenyl)amino)-5-((4-(pyrimidin-2-yloxy)benzyl)amino)-1H-pyrazole-4-carboxamide] | B (no greater than 50% but at least 20% inhibition of the RC kinase activity at 1 μM)
205 to 211 | 5 to 20 | NC(=O)c1c(Nc2cccc(Cl)c2)n[nH]c1NCc1ccc(Oc2ccc(C(F)(F)F)cn2)cc1 [Compound D33, 3-((3-chlorophenyl)amino)-5-((4-((5-(trifluoromethyl)pyridin-2-yl)oxy)benzyl)amino)-1H-pyrazole-4-carboxamide] | 
208 to 212 | ≥ 50 | NC(=O)c1c(Nc2cccnc2)n[nH]c1NCc1cccc(O)c1 [Compound D38, 5-((3-hydroxybenzyl)amino)-3-(pyridin-3-ylamino)-1H-pyrazole-4-carboxamide] | 
226 to 229 | 20 to 50 | COc1cc(CNc2[nH]nc(Nc3cccnc3)c2C(N)=O)ccc1F [Compound D40, 5-((4-fluoro-3-methoxybenzyl)amino)-3-(pyridin-3-ylamino)-1H-pyrazole-4-carboxamide] | 
225 to 229 | 20 to 50 | CN(C)c1ccc(CNc2[nH]nc(Nc3cccnc3)c2C(N)=O)c2ccccc12 [Compound D42, 5-(((4-(dimethylamino)naphthalen-1-yl)methyl)amino)-3-(pyridin-3-ylamino)-1H-pyrazole-4-carboxamide] | 
231 to 236 | 20 to 50 | CCOc1ccc2ccccc2c1CNc1[nH]nc(Nc2cccnc2)c1C(N)=O [Compound D43, 5-(((2-ethoxynaphthalen-1-yl)methyl)amino)-3-(pyridin-3-ylamino)-1H-pyrazole-4-carboxamide] | 
197 to 202 | 5 to 20 | COc1cc(OC)c(OC)cc1CNc1[nH]nc(Nc2cccnc2)c1C(N)=O [Compound D46, 3-(pyridin-3-ylamino)-5-((2,4,5-trimethoxybenzyl)amino)-1H-pyrazole-4-carboxamide] | 

melting point [°C] | inhibition at 1 µM [1] [%] | SMILES | Activity (inhibition of the RC kinase activity at 1 μM) [1]
201 to 206 | 5 to 20 | NC(=O)c1c(Nc2cccnc2)n[nH]c1NCc1ccc[nH]1 [Compound D53, 5-(((1H-pyrrol-2-yl)methyl)amino)-3-(pyridin-3-ylamino)-1H-pyrazole-4-carboxamide] | 
193 to 198 | 5 to 20 | NC(=O)c1c(Nc2cccc(Cl)c2)n[nH]c1NCc1ccc[nH]1 [Compound D59] | 
228 to 231 | ≥ 50 | NC(=O)c1c(Nc2ccc(-n3ccnc3)cc2)n[nH]c1NCc1ccc(O)cc1 [Compound D60] | 
169 to 174 | ≥ 50 | Cc1ccc(Nc2n[nH]c(NCc3ccc(O)cc3)c2C(N)=O)cc1 [Compound D61, 5-((4-hydroxybenzyl)amino)-3-(p-tolylamino)-1H-pyrazole-4-carboxamide] | 
167 to 172 | ≥ 50 | CC(=O)c1ccc(Nc2n[nH]c(NCc3ccc(O)cc3)c2C(N)=O)cc1 [Compound D62, 3-((4-acetylphenyl)amino)-5-((4-hydroxybenzyl)amino)-1H-pyrazole-4-carboxamide] | 
225 to 230 | ≥ 50 | NC(=O)c1ccc(Nc2n[nH]c(NCc3ccc(O)cc3)c2C(N)=O)cc1 [Compound D63, 3-((4-carbamoylphenyl)amino)-5-((4-hydroxybenzyl)amino)-1H-pyrazole-4-carboxamide] | 
200 to 203 | ≥ 50 | N#CCc1ccc(Nc2n[nH]c(NCc3ccc(O)cc3)c2C(N)=O)cc1 [Compound D64, 3-((4-(cyanomethyl)phenyl)amino)-5-((4-hydroxybenzyl)amino)-1H-pyrazole-4-carboxamide] | 
177 to 180 | ≥ 50 | COc1cccc(Nc2n[nH]c(NCc3ccc(O)cc3)c2C(N)=O)c1 [Compound D65, 5-((4-hydroxybenzyl)amino)-3-((3-methoxyphenyl)amino)-1H-pyrazole-4-carboxamide] | 
189 to 194 | ≥ 50 | N#Cc1cccc(Nc2n[nH]c(NCc3ccc(O)cc3)c2C(N)=O)c1 [Compound D66, 3-((3-cyanophenyl)amino)-5-((4-hydroxybenzyl)amino)-1H-pyrazole-4-carboxamide] | 
132 to 136 | ≥ 50 | CCOC(=O)c1cccc(Nc2n[nH]c(NCc3ccc(O)cc3)c2C(N)=O)c1 [Compound D67, ethyl 3-((4-carbamoyl-5-((4-hydroxybenzyl)amino)-1H-pyrazol-3-yl)amino)benzoate] | 
208 to 212 | ≥ 50 | CCc1cccc(Nc2n[nH]c(NCc3ccc(O)cc3)c2C(N)=O)c1 [Compound D68, 3-((3-ethylphenyl)amino)-5-((4-hydroxybenzyl)amino)-1H-pyrazole-4-carboxamide] | 
196 to 200 | 5 to 20 | COc1ccc(CNc2[nH]nc(Nc3cccc(Cl)c3)c2C(N)=O)c(OC)c1OC [Compound D69] | 
 | 20 to 50 | Cc1ccc(S(=O)(=O)Nc2ccc(Nc3n[nH]c(NCc4ccc(O)cc4)c3C(N)=O)cc2)cc1 [Compound D136, 5-((4-hydroxybenzyl)amino)-3-((4-(4-methylphenylsulfonamido)phenyl)amino)-1H-pyrazole-4-carboxamide] | 
 |  | COc1cccc(C(=O)Nc2ccc(Nc3n[nH]c(NCc4ccc(O)cc4)c3C(N)=O)cc2)c1 [Compound D145] | A (at least 50% inhibition of the RC kinase activity at 1 μM)
 |  | NC(=O)c1c(Nc2ccc(NC(=O)c3ccccc3OC(F)(F)F)cc2)n[nH]c1NCc1ccc(O)cc1 [Compound D147] | A (at least 50% inhibition of the RC kinase activity at 1 μM)
 | ≤ 5 | NC(=O)c1c(Nc2cccc(Cl)c2)n[nH]c1NCc1c[nH]nc1-c1ccc(F)cc1 [Compound D166] | 
